Data from patent publication US20120202884A1, “INHIBITORS OF CXCR1/2 AS ADJUVANTS IN THE TRANSPLANT OF PANCREATIC ISLETS” (DOMPE' S.P.A., priority 2009, published 2012).

What was measured:
[1] = tested on: diabetic C57 mice; assay: Allogeneic islet transplantation in the liver of diabetic mice; details: for Odds ratio, Multivariate Cox Regression Analysis of loss of graft survival: Reparixin 95% CI 0.099-0.64, p=0.004, Rapamycin 95% CI 0.562-2.45, p=0.67; for Odds ratio, Multivariate Cox Regression Analysis of reaching primary function: allogeneic transplant, Reparixin 95% CI 0.79-2.99, p<0.202, Rapamycin 95% CI 0.62-2.15, p<0.62; for probability to reach the primary function (glycaemia<250 mg/dl) / median time to reach the primary function (glycaemia<250 mg/dl): allogeneic, 400 IE in liver; for probability to reach the primary function (glycaemia<250 mg/dl): Reparixin 5.28 mg/kg/h s.c. day -1 to 7, Rapamycin i.p. 0.3 then 0.15 mg/kg to day 14, vehicle 44%; for median time to reach the primary function (glycaemia<250 mg/dl): vehicle 2 days; for median survival time (graft): mice that achieved primary function, vehicle 8±0.5 days
Experimental: Islets from 12 week old Balb/c mice were transplanted in the liver of diabetic C57 mice (alloxan, glycaemia>450 mg/dl). […] In both cases 400 IE were transplanted.
The ability to reach primary function, defined as non-fasting blood glucose levels less than 250 mg/dl for 2 consecutive measurements after islet transplantation and the time to rejection defined as 2 consecutive non-fasting blood glucose readings greater than 300 mg/dL were first evaluated.

[2] = tested on: diabetic C57 mice; assay: Syngeneic islet transplantation in the liver of diabetic mice; format: in vivo
Experimental: Two different marginal islet mass models, 150 IE (Islet Equivalents) and 250 IE, were used. […] Control animals received continuous s.c. vehicle.
The ability to reach a non-fasting blood glucose level less than 200 mg/dl for two consecutive measurements after islet transplantation was first evaluated.
An intravenous glucose tolerance test (IVGTT) and an oral glucose tolerance test (OGTT) were performed 1 and 3 months after transplantation to evaluate the functionality of the grafted islets. IVGTT was initiated after a 16-hour fast; the mice were given glucose (0.5 g/kg) by tail vein injection. Blood samples were obtained 0, 1, 5, 15, 20, 30 and 60 minutes after injection and were used to determine glucose concentrations. From the IVGTT, glucose tolerance was quantified from the glucose elimination constant (KG; expressed as percent elimination of glucose per minute) as the reduction in circulating glucose between 1 and 15 min (KG1-15) after intravenous administration, following the logarithmic transformation of the individual plasma glucose values. A similar estimation was performed for the total 1- to 60-min glucose disappearance rate (KG 1-60). This parameter indicates the rate of glucose disappearance during the whole test. OGTT was initiated after a 4-hour fast; the mice were given glucose (1 g/kg) by oral gavage. Blood samples were obtained 0, 10, 20, 30, 60, 90 and 120 minutes after glucose administration and used to determine glucose concentrations. The area under the curve (AUC) for glucose during OGTT was calculated using the trapezoidal method (baseline=0 min). […] The data are reported as scatter plots. […] Upper and lower panels respectively report the data 1 and 3 months after transplantation.
Acute liver damage was quantified by circulating levels of alanine aminotransferase (ALT) 24 h and 48 h after Transplantation.

[3] = tested on: intrahepatic leukocyte (IHL) population; assay: Intrahepatic leukocyte population after allogeneic intrahepatic islet transplantation (flow cytometry); format: in vivo, mice
Experimental: The intrahepatic leukocyte population was analysed in the presence or in the absence of Reparixin treatment after allogeneic intrahepatic islet transplantation in mice. […] The mice were sacrificed at day 0, +1, +3, +5, +7, +10, +14 after islet transplantation and the livers were weighed at the time of autopsy. Single cell suspensions were prepared from two liver lobes of known weight and analysis of the intrahepatic leukocyte (IHL) population was performed flow cytometry. The cells were surface stained with fluorescein isothiocyanate (FITC)-, phycoerythrin (PE)- or allophycocyanin (APC)-labeled anti-CD4, anti-CD8, anti-CD3, anti CD19, anti-TCR, anti-NK1.1, anti CD11, anti-Gr-1, anti-CD11b, and anti-CD11c Abs (PharMingen, San Diego, Calif.) for the detection of Gr-^+/CD11b^+/CD11c^− cells (mostly PMNs), […] (mostly T helper cell), CD8^+/TCR^+ cells (mostly CTLs), […], NK1.1^+/CD3^+ cells (NKT cells) and Gr-1^−/CD11b^−/CD11c^− (mostly macrophages), CD115+/CD11b+/Cd11c− (mostly monocytes), CD11c+/CD11b+/Gr1− (mostly dendritic cells), CD19 (mostly B lymphocytes). Samples were acquired on a FACSCalibur flow cytometer and the data were analyzed using CELLQuest software (Becton Dickinson Immunocytometry Systems, San Jose, Calif.). In a second set of experiments, CXCR2 and CXCR1 expression on IHL Population was evaluated at the time point in which leucocyte infiltration gained the highest degree of infiltration.

[4] = tested on: diabetic C57 mice; assay: Allogeneic islet transplantation in bone marrow of diabetic mice; format: in vivo; details: 400 EI Balb/c islets in bone marrow; Reparixin 8 mg/h/kg s.c. continuous infusion 7 days from day -1
Experimental: A control group of mice was treated with vehicle.

[5] = 1 and 3 months after transplantation, versus control mice

SMILES: CO[C@H]1C[C@@H]2CC[C@@H](C)[C@@](O)(O2)C(=O)C(=O)N2CCCC[C@H]2C(=O)O[C@H]([C@H](C)C[C@@H]2CC[C@@H](O)[C@H](OC)C2)CC(=O)[C@H](C)/C=C(\C)[C@@H](O)[C@@H](OC)C(=O)[C@H](C)C[C@H](C)/C=C/C=C/C=C/1C [Rapamycin, reference compound]
- Odds ratio, Multivariate Cox Regression Analysis of loss of graft survival [1]: 1.173
- Odds ratio, Multivariate Cox Regression Analysis of reaching primary function [1]: 1.1
- probability to reach the primary function (glycaemia<250 mg/dl) [1]: 73%
- median time to reach the primary function (glycaemia<250 mg/dl) [1]: 1 days
- median survival time (graft) [1]: 8 ± 0.6 days

SMILES: CC(C)Cc1ccc([C@@H](C)C(=O)NS(C)(=O)=O)cc1 [Reparixin, R(−)-2-[(4-isobutylphenyl)propionyl]-methanesulfonamide]
- glucose elimination constant between 1 and 15 min (KG1-15), IVGTT [2, 5]: significantly increased
- glucose elimination constant between 1 and 60 min (KG1-60), IVGTT [2, 5]: significantly increased
- AUC for glucose during OGTT ([2]; 1 and 3 months post transplant, versus control mice): remains lower than that of the control mice
- circulating levels of alanine aminotransferase (ALT), acute liver damage ([2]; 24 h and 48 h after transplantation, 150 or 250 IE): not affected
- probability to reach euglycaemia (<200 mg/dl) ([2]; syngeneic C57 islets, 150 or 250 IE in liver, Reparixin 8 mg/kg/h s.c. continuous infusion day -1 to 6 or 13, vehicle 35.1%): 50%
- median time to reach euglycaemia (<200 mg/dl) ([2]; syngeneic C57 islets, 150 or 250 IE in liver, Reparixin 8 mg/kg/h s.c. continuous infusion, vehicle 50 days): 7 days
- Odds ratio, Multivariate Cox Regression Analysis of reaching euglycaemia ([2]; syngeneic transplant, 95% CI: 1.1-6.1, p<0.021): 2.6
- circulating levels of white blood cells, red blood cells and platelets ([2]; syngeneic transplant, data not shown): no difference
- leucocytes recruitment and infiltration in the liver ([3]; allogeneic transplant 400 EI, Reparixin 8 mg/h/kg s.c. continuous infusion 7 days from day -1): reduces
- PMNs in the liver ([3]; allogeneic transplant, Reparixin 8 mg/h/kg s.c., FIG. 8): significantly affected
- NKT cells in the liver ([3]; allogeneic transplant, Reparixin 8 mg/h/kg s.c., FIG. 9): significantly affected
- outcome (primary function and time to rejection) [4]: improved
- Odds ratio, Multivariate Cox Regression Analysis of loss of graft survival [1]: 0.252
- Odds ratio, Multivariate Cox Regression Analysis of reaching primary function [1]: 2.5
- probability to reach the primary function (glycaemia<250 mg/dl) [1]: 72%
- median time to reach the primary function (glycaemia<250 mg/dl) [1]: 1 days
- time to rejection ([1]; mice that achieved primary function post-transplant, rejection = 2 consecutive non-fasting glucose readings >300 mg/dL): significantly increased
- median survival time (graft) [1]: 12 ± 0.6 days
